Results published in patent publication US20240336606A1 (Suzhou Zelgen Biopharmaceuticals Co., Ltd., priority 2020, published 2024).

Columns and labels:
[1] = target: T1, binding of KRAS^G12C to SOS1 (Homo sapiens, UniProt Q07889); assay: Inhibition of the binding of KRAS^G12C to SOS1; details: Tag1-SOS1 / Tag2-KRAS^G12C, 2 h incubation at room temperature; read-out: IC50 (nM), inhibitory activity on the binding of KRAS^G12C to SOS1
T1 construct: Tag1 (unspecified)
T1 sequence (Q07889 1-1333): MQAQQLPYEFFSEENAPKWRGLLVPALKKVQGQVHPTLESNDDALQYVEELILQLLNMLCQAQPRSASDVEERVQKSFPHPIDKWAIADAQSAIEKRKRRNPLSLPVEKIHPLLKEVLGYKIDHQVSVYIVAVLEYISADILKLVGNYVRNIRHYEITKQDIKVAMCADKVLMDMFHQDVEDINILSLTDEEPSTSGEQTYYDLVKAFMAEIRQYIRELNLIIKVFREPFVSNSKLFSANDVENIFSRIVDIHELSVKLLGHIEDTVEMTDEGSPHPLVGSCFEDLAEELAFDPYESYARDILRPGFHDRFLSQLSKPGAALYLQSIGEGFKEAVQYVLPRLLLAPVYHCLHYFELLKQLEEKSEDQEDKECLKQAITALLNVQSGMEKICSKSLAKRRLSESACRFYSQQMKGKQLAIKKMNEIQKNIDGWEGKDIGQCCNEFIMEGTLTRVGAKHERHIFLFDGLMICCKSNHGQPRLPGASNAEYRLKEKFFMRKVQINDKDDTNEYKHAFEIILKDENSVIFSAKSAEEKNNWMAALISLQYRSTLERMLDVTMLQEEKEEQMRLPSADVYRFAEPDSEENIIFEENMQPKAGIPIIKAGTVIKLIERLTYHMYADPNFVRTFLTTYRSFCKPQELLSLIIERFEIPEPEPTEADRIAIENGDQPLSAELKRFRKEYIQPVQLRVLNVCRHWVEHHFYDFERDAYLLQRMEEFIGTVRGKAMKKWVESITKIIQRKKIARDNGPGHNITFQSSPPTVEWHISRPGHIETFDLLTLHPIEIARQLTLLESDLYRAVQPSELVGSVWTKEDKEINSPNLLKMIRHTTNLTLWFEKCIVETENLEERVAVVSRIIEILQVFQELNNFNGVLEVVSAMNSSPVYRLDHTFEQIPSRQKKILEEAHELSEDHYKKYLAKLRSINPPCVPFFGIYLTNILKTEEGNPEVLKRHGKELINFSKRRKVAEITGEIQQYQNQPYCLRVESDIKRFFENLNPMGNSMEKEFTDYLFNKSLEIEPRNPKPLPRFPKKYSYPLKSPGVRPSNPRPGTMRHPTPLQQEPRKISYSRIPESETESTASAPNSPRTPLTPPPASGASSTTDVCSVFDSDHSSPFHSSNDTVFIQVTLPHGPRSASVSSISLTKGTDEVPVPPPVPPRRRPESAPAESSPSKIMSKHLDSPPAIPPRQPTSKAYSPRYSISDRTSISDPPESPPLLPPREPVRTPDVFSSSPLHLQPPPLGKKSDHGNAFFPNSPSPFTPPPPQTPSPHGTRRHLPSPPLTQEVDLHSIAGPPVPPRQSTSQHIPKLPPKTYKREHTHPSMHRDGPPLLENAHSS
Method in brief: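 Tag1-SOS1 and Tag2-KRAS^G12C mixed with serially diluted compound (final 0.25% DMSO), then anti-Tag1-Tb3+ and anti-Tag2-XL665 added for 2 h at room temperature. IC50 from curve fit of the TR-FRET signal.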

[2] = test system: H358 cells; assay: Inhibition of H358 cell proliferation (CellTiter-Glo 3D, 7 days); format: cell-based; details: Homo sapiens, 168 h, NCI-H358, 7 days, read-out: IC50 (nM), inhibitory activity on H358 cell proliferation
Method: • (a) The cells were thawed in T75 cell culture flasks:
• (b) When 80-90% cell confluence was achieved, the cells were passaged.
The diluted test compounds were added to a 384-well cell culture plate using a nanoliter pipetting system, and duplicate wells were set. An equal volume of medium was added to the positive control group; an equal volume of DMSO was added to the negative control group. The plate was centrifuged at 1000 rpm at room temperature for 1 min.
The cells were inoculated into a) 384-well culture plate, an equal volume of cells was added to the negative control group, and only an equal volume of medium was added to the positive control group. The plate was centrifuged at 1000 rpm at room temperature for 1 min. The final concentration of DMSO in the final compounds was 0.5%. The plate was incubated in a thermostatic incubator at 37° C. with 5% CO2 for 7 days.
CellTiter-Glo® 3D was added to b) 384-well cell culture plate at 20 μL/well. The plate was shaken at 320 rpm in the dark for 20 min, and incubated at room temperature in the dark for 2 h. The luminescence values were read using an Envision multi-mode microplate reader.
The inhibition rates of the compounds at different concentrations were calculated in Excel, and then inhibition curves were plotted and relevant parameters including minimum inhibition rate, maximum inhibition rate and IC50 were calculated using GraphPad Prism software.

## COCCOc1cc2c(N[C@H](C)c3cc(OC)cc(C(F)(F)C(C)(C)O)c3)nc(C)nc2cc1OC [Example 87, (R)-1,1-Difluoro-1-(3-methoxy-5-(1-((7-methoxy-6-(2-methoxyethoxy)-2-methylquinazolin-4-yl)amino)ethyl)phenyl)-2-methylpropan-2-ol]
[1]
  IC50: 170 nM

## COCCOc1cc2c(N[C@H](C)c3cccc(C(F)(F)C(C)(C)O)c3Cl)nc(C)nc2cc1OC [Example 88, (R)-1-(2-Chloro-3-(1-((7-methoxy-6-(2-methoxyethoxy)-2-methylquinazolin-4-yl)amino)ethyl)phenyl)-1,1-difluoro-2-methylpropan-2-ol]
[1]
  IC50: 20 nM

## COCCOc1cc2c(N[C@H](C)c3cccc(C(F)(F)C(C)(C)O)c3C)nc(C)nc2cc1OC [Example 90, (R)-1,1-Difluoro-1-(3-(1-((7-methoxy-6-(2-methoxyethoxy)-2-methylquinazolin-4-yl)amino)ethyl)-2-methylphenyl)-2-methylpropan-2-ol]
[2]
  IC50: 48.6 nM

## COCCOc1cc2c(N[C@H](C)c3cc(C#N)cc(C(F)(F)C(C)(C)O)c3)nc(C)nc2cc1OC [Example 91, (R)-3-(1,1-Difluoro-2-hydroxy-2-methylpropane)-5-(1-((7-methoxy-6-(2-methoxyethoxy)-2-methylquinazolin-4-yl)amino)ethyl)benzonitrile]
[2]
  IC50: > 10000 nM

## COc1cc2nc(C)nc(N[C@H](C)c3cccc(C(F)(F)C(C)(C)O)c3F)c2cc1OCCOC1COC1 [Example 92, (R)-1,1-Difluoro-1-(2-fluoro-3-(1-((7-methoxy-2-methyl-6-(2-(oxetan-3-yloxy)ethoxy)quinazolin-4-yl)amino)ethyl)phenyl)-2-methylpropan-2-ol]
[2]
  IC50: 18.2 nM

## COc1cc2nc(C)nc(N[C@H](C)c3cccc(C(F)(F)C(C)(C)O)c3F)c2cc1OCCOC1CC1 [Example 93, (R)-1-(3-(1-((6-(2-Cyclopropyloxyethoxy)-7-methoxy-2-methylquinazolin-4-yl)amino)ethyl)-2-fluorophenyl)-1,1-difluoro-2-methylpropan-2-ol]
[2]
  IC50: 40.9 nM

## [2H]C([2H])([2H])Oc1cc2nc(C)nc(N[C@H](C)c3cccc(C(F)(F)C(C)(C)O)c3F)c2cc1OCCOC [Example 97, (R)-1,1-Difluoro-1-(2-fluoro-3-(1-((7-deuteratedmethoxy-6-(2-methoxyethoxy)-2-methylquinazolin-4-yl)amino)ethyl)phenyl)-2-methylpro pan-2-ol]
[2]
  IC50: 15.5 nM

## CCOc1cc2nc(C)nc(N[C@H](C)c3cccc(C(F)(F)C(C)(C)O)c3F)c2cc1OCCOC [Example 98, (R)-1-(3-(1-((7-Ethoxy-6-(2-methoxyethoxy)-2-methylquinazolin-4-yl)amino)ethyl)-2-fluor ophenyl)-1,1-difluoro-2-methylpropan-2-ol]
[2]
  IC50: 12.8 nM

## COCCOc1cc2c(N[C@H](C)c3cccc(C(F)(F)C(C)(C)O)c3F)nc(C)nc2cc1OC(C)C [Example 99, (R)-1,1-Difluoro-1-(2-fluoro-3-(1-((7-isopropoxy-6-(2-methoxyethoxy)-2-methylquinazolin-4-yl)amino)ethyl)phenyl)-2-methylpropan-2-ol]
[2]
  IC50: 20 nM

## COCCOc1cc2c(N[C@H](C)c3cccc(C(F)(F)C(C)(C)O)c3F)nc(C)nc2cc1-c1cccnc1 [Example 101, (R)-1,1-Difluoro-1-(2-fluoro-3-(1-((6-(2-methoxyethoxy)-2-methyl-7-(pyridin-3-yl)quinazolin-4-yl)amino)ethyl)phenyl)-2-methylpropyl-2-ol]
[2]
  IC50: 15.5 nM

## COCCOc1cc2c(N[C@H](C)c3cccc(C(F)(F)C(C)(C)O)c3F)nc(C)nc2cc1-c1cnn(C)c1 [Example 102, (R)-1,1-Difluoro-1-(2-fluoro-3-(1-((6-(2-methoxyethoxy)-2-methyl-7-(1-methyl-1H-pyrazol-4-yl)quinazolin-4-yl)amino)ethyl)phenyl)-2-methylpropyl-2-ol]
[2]
  IC50: 13.3 nM

## COCCOc1cc2c(N[C@H](C)c3cccc(C(F)(F)C(C)(C)O)c3F)nc(C)nc2cc1OC1COC1 [Example 103]
[2]
  IC50: 23.5 nM

## COCCOc1cc2nc(C)nc(N[C@H](C)c3cc(N)cc(C(F)(F)C(C)(C)O)c3)c2cc1OCCOC [Example 113, (R)-1-(3-Amino-5-(1-((6,7-bis(2-methoxyethoxy)-2-methylquinazolin-4-yl)amino)ethyl)phenyl)-1,1-difluoro-2-methylpropan-2-ol]
[2]
  IC50: 10.4 nM

## COc1cc2nc(C)nc(N[C@H](C)c3cc(N)cc(C(F)(F)C(C)(C)O)c3)c2cc1OCCOc1cccnc1 [Example 115, (R)-1-(3-Amino-5-(1-(7-methoxy-2-methyl-6-(2-(pyridine-3-oxy)ethoxy)quinazolin-4-yl)amino)ethyl)phenyl-1,1-difluoro-2-methylpropan-2-ol]
[2]
  IC50: 9.92 nM

## COc1cc2nc(C)nc(N[C@H](C)c3cc(N)cc(C(F)(F)C(C)(C)O)c3)c2cc1OCCOC1CC1 [Example 116, (R)-1-(3-Amino-5-(1-((6-(2-cyclopropoxyethoxy)-7-methoxy-2-methylquinazolin-4-yl)amino)ethyl)phenyl)-1,1-difluoro-2-methylpropyl-2-ol]
[2]
  IC50: 4.29 nM

## COc1cc2nc(C)nc(N[C@H](C)c3cc(N)cc(C(F)(F)C(C)(C)O)c3)c2cc1OCCOC1COC1 [Example 117, (R)-1-(3-Amino-5-(1-((7-methoxy-2-methyl-6-(2-(oxetan-3-yloxy)ethoxy)quinazolin-4-yl)amino)ethyl)phenyl)-1,1-difluoro-2-methylpropyl-2-ol]
[2]
  IC50: 2.65 nM

## COc1cc2nc(C)nc(N[C@H](C)c3cc(N)cc(C(F)(F)C(C)(C)O)c3)c2cc1OCCOC1CC1(F)F (stereo partly drawn) [Example 118]
[2]
  IC50: 2.65 nM

## COCCOCCOc1cc2c(N[C@H](C)c3cc(N)cc(C(F)(F)C(C)(C)O)c3)nc(C)nc2cc1OC [Example 119, (R)-1-(3-Amino-5-(1-(7-methoxy-6-(2-(2-methoxyethoxy)ethoxy)-2-methylquinazolin-4-yl)amino)ethylphenyl)-1,1-difluoro-2-methylpropan-2-ol]
[2]
  IC50: 11.5 nM

## COCC(COC)Oc1cc2c(N[C@H](C)c3cc(N)cc(C(F)(F)C(C)(C)O)c3)nc(C)nc2cc1OC [Example 122]
[2]
  IC50: 15.6 nM

## COCCOc1cc2c(N[C@H](C)c3cc(N)cc(C(F)(F)C(C)(C)O)c3)nc(C)nc2cc1-c1cc[nH]n1 [Example 123, (R)-1-(3-Amino-5-(1-((6-(2-methoxyethoxy)-2-methyl-7-(1H-pyrazolyl-3-yl)quinazolin-4-yl)amino)ethyl)phenyl)-1,1-difluoro-2-methylpropan-2-ol]
[2]
  IC50: 32.8 nM

## C#Cc1cc2nc(C)nc(N[C@H](C)c3cccc(C(F)(F)C(C)(C)O)c3F)c2cc1OCCOC [Example 153, (R)-1-(3-(1-(7-ethynyl-6-(2-methoxyethoxy)-2-methylquinazoline-4-amino)ethyl)-2-fluorophenyl)-1,1-difluoro-2-methylpropan-2-ol]
[2]
  IC50: 34.7 nM
